Reference: patent US10662153B2 (The University of Toledo, priority 2016, dated 2020)

How the values were obtained:
PPARα OE 3T3-L1 cells = experiment: Endogenous PPARα gene regulatory activity in 3T3-L1 cells (Real-time PCR); type: cell-based, mouse; settings: 50 μM, 24 hours, dialyzed fatty acid-free media
Experimental: (§1) (FIG. 4D.) RNA was extracted and mRNA expression was measured by Real-time PCR.
(§2) To establish a 3T3-L1 or Hepa1c1c7 cell line that have PPARα stably overexpressed, mouse PPARα cDNA was ligated into the NotI/BamHI sites of the pQXCIP vector and transformed in DH5α cells (Invitrogen, Carlsbad, Calif.). […] The supernatants were harvested, and the cell debris was removed by centrifugation at 2000×g. The supernatant was used to infect 3T3-L1 or Hepa1c1c7 cells after addition of polybrene ([…], Sigma Chemical Co., St. Louis, Mo.) to establish cell lines with stable overexpression of a PPARα overexpressing (3T3-PPARα) or expressing empty vector (3T3-Vector). After 72 h the cells were selected with puromycin, and positive cells were confirmed by Western blotting and used for experiments.

[1] = system: hepa1c1c7 mouse hepatocytes overexpressing PPARα; experiment: PPARα controlled genes in hepa1c1c7 liver cells (Real-time PCR); type: cell-based; settings: 50 μM, 24 hours, dialyzed fatty acid-free media
Experimental: as §1, §2

3T3-L1 cells = experiment: Adipogenesis assay (Nile Red lipid accumulation, Real-time PCR); type: cell-based, mouse
Experimental: Total RNA was read on a NanoDrop 2000® spectrophotometer (Thermo Fisher Scientific, Wilmington, Del.), and cDNA was synthesized using High Capacity cDNA Reverse Transcription Kit (Applied Biosystems). PCR amplification of the cDNA was performed by quantitative real-time PCR using TrueAmp® SYBR Green qPCR SuperMix (Advance Bioscience). The thermocycling protocol consisted of 10 min at 95° C., 40 cycles of 15 sec at 95° C., 30 sec at 60° C., and 20 sec at 72° C., and finished with a melting curve ranging from 60-95° C. to allow distinction of specific products. Normalization was performed in separate reactions with primers to GAPDH.
Adipogenic differentiation of 3T3-L1 cells was achieved by treatment with 1 μM Dex, 830 nM insulin, and 100 μM isobutylmethylxanthine in 10% FBS until Day 9. Upon differentiation, cells were stained with Nile Red to visualize lipid content, and densitometry was used as a direct measure. Total RNA extracted from Nile Red stained cells was used for real time PCR analysis.

[2] = type: physicochemical
Description: (§3) This was to help increase the solubility of bilirubin in solution. […] Bilirubin was purchased commercially from Frontier Scientific.

PPARα [3] = molecular target: T1, PPARα (Mus musculus, UniProt P23204); experiment: Pull-down assay with ligand-coupled sepharose resins, PPARα OE 3T3-L1 cells; type: binding; parameters: expressed in transfected cells; settings: ligand coupled to sepharose beads
T1 sequence (P23204 1-468): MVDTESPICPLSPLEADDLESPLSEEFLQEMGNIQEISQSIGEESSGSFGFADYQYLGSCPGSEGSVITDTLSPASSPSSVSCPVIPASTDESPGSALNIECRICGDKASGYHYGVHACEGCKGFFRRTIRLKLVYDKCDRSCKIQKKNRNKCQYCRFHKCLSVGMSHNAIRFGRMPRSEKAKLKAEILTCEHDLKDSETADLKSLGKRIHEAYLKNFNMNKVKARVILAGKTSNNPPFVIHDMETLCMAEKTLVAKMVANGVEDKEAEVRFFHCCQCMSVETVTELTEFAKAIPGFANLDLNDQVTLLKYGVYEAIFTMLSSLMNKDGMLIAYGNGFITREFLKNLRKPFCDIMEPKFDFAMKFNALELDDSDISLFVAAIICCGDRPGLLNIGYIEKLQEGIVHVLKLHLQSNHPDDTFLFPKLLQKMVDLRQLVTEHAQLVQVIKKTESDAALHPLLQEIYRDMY
Experimental: The ligand coupling was performed according to the GE Healthcare instructions (71-7097-00 AE, pg. 6) for EAH Sepharose™ 4B. The procedure in the online instructions was titled “A general ligand coupling procedure”. […] Resin coupling procedures were conducted in a DMF/H2O solvent system (1:1) with a final concentration of 0.1 M EDC*HCl. […] Upon completion, resins were washed according to the GE instructions (3 alternating washings with 0.5 M NaCl containing 0.1 M sodium acetate pH 4.5 and 0.5 M NaCl containing 0.1 M Tris pH 8) over a 10-15 μm fritted filter. As an additional step to the GE instructions, matrix-coupled bilirubin and biliverdin coupled preparations were further washed with 50% DMSO/H2O solutions (250 mL) to remove any unreacted ligand. The filtrate was nearly colorless after this step. […] The resins were suspended in 20% EtOH/H2O (15 mL) and stored at 4° C. for 16 h in capped sample vials. The ligand-coupled resin settles overnight and the supernatant was carefully decanted until minimal amounts of 20% EtOH/H2O covered the resin. […]
Whole cell extracts (WCE) were prepared by freezing the cell pellet overnight at −80° C. […] Immunoreactivity was visualized and quantified by infrared scanning in the Odyssey system (LI-COR Biosciences). […]

PPARα [4] = molecular target: T1, PPARα; experiment: Promoter reporter assay (PPRE-3tk-luc luciferase) in Cos7 cells; settings: for level of PPARα activation compared among the ligands / PPARα activity at the minimal luciferase promoter: PPARα overexpressed, 50 μM each; for level of PPARα activation compared among the ligands: 24 hours (FIG. 3C); for PPARα activity at the minimal luciferase promoter: vs Veh (FIG. 3C)
Experimental: Cos7 cells were transiently transfected with a minimal PPARα responsive promoter luciferase construct (PPRE-3tk-luc) for 24 hours along with an empty vector and a vector containing PPARα cDNA (overexpression).
The mouse 3T3-L1 preadipocyte, Hepa1c1c7, and Cos7 green kidney monkey cells were routinely cultured and maintained in Dulbecco's Modified Eagles's Medium (DMEM) containing 10% bovine calf serum or FBS with 1% penicillin-streptomycin.
A PPARα minimal promoter PPRE-3tk-luc activity was measured by luciferase, and pRL-CMV Renilla reporter for normalization to transfection efficiency. Transient transfection was achieved using GeneFect® (Alkali Scientific, Inc.). Twenty-four-hour post-transfected cells were lysed and the luciferase assay was performed using the Promega® dual luciferase assay system (Promega, Madison, Wis.).

[5] = Stability on heating during resin preparation; type: physicochemical; settings: 75° C. for 90 min in DMF/H2O; judged by decrease in PPARα binding of resin
Description: as §3

[6] = system: wild-type mice on a high fat diet; settings: mouse, in vivo
Experimental: (§4) With respect to animals, the procedures and protocols conform to the National Institutes of Health Guide for the Care and Use of Laboratory Animals, and were approved by the Institutional Animal Care and Use Committee of the University of Mississippi Medical Center. Tests were performed on 16 week old male PPARα knockout and wild-type mice on a C57 genetic background purchased from Jackson Labs (Bar Harbor, Me.). […] After this time, mice were switched to a 60% high fat diet (diet # D12492, Research Diets, Inc., New Brunswick, N.J.) for an additional 6 weeks. […] Control mice were not treated. Mice were euthanized on the last day of the test, at which time all organs were collected and weighed.
(§5) Following an 8 hour fast, a blood sample was obtained via orbital sinus under isoflorane anesthesia.
(§6) Plasma samples from individual mice were measured in duplicate and then averaged. The concentrations are expressed as mg/dL Plasma alanine aminotransferase (ALT) and aspartate aminotransferase (AST) levels were determined in 50 μL of plasma by colorimetric assay (Cobas, Rochce Diagnostics, Indianapolis, Ind.). Assays were performed according to the manufacturer's guidelines and samples were read on a Roche Cobas c501 analyzer. The concentrations were expressed as units/L.

[7] = system: PPARα KO mice on a high fat diet; settings: mouse, in vivo
Experimental: as §4, §5, §6

[8] = system: PPARα KO mice on a high fat diet; experiment: High fat diet PPARα KO mice treated for seven days; settings: bilirubin 30 mg/kg or fenofibrate 90 mg/kg i.p.
Experimental: as §4, §5, §6

[9] = 10 μM, differentiated 3T3-L1 adipocytes

solubility in organic solvents [2] | level of PPARα activation compared among the ligands (PPARα [4]; Cos7 cells) | PPARα activity at the minimal luciferase promoter (PPARα [4]; Cos7 cells, 24 hours) | SMILES | CD36 mRNA expression (PPARα OE 3T3-L1 cells) | CD36 mRNA [1] | CYP4A10 mRNA [1] | FGF21 mRNA response [1] | Pyruvate dehydrogenase kinase 4 (PDK4) expression [1] | angiopoietin-like 4 (ANGPTL4) expression [1] | heme oxygenase-1 (HO-1) mRNA response [1] | reduction of lipid accumulation (3T3-L1 cells; 10 μM over the 9 day protocol) [%] | expression of FAS (3T3-L1 cells; [9]) | reduction of lipid accumulation (3T3-L1 cells; 50 μM over the 9 day protocol) [%] | other results
readily soluble | higher than biliverdin or fenofibrate | significantly (p<0.0001) increased | Cc1cccc(Nc2cc(Cl)nc(SCC(=O)O)n2)c1C [WY 14,643] | strongly induced expression | responded | responded | not | significantly (p<0.05) higher | significantly increased | not | 56 | significantly (p<0.001) decreased expression of FAS | 33 | direct binding to PPARα (pull-down) (PPARα [3]): can directly bind; induction of PPARα activity (PPARα [4]; Cos7 cells transfected with PPARα and RXR, 50 μM, 24 hrs (FIG. 12)): 2.1 fold
limited solubility | – | – | C=CC1=C(C)/C(=C/c2[nH]c(Cc3[nH]c(/C=C4\NC(=O)C(C)=C4C=C)c(C)c3CCC(=O)O)c(CCC(=O)O)c2C)NC1=O [bilirubin] | – | – | – | – | – | – | – | – | – | – | stability with heating [5]: less stable with heating; alanine aminotransferase (ALT) [6]: no change; aspartate aminotransferase (AST) [6]: no change; alanine aminotransferase (ALT) [7]: significantly (p<0.05) decreased; aspartate aminotransferase (AST) [7]: significantly (p<0.05) decreased; body weight [8]: no effect
readily soluble | same level of PPARα activation | significantly (p<0.0001) increased | C=CC1=C(C)/C(=C/C2=NC(=C\c3[nH]c(/C=C4\NC(=O)C(C)=C4C=C)c(C)c3CCC(=O)O)/C(CCC(=O)O)=C2C)NC1=O [biliverdin] | significantly (p<0.05) increased CD36 mRNA expression more than fenofibrate | not | not | increased | increased with all the ligands | significantly increased | increased | 50 | significantly (p<0.001) decreased expression of FAS | 91 | CPT1 expression (PPARα OE 3T3-L1 cells): increased CPT1 and FGF21 expression more than WY 14,643 treatment; FGF21 mRNA expression (PPARα OE 3T3-L1 cells): significantly (p<0.05) enhanced FGF21 mRNA higher than fenofibrate; reduction of lipid accumulation (3T3-L1 cells; 10 μM over the 9 day protocol, listed as Biliverdin): 49%; expression of CPT1 (3T3-L1 cells; [9]): significantly (p<0.001) increased expression of CPT1; water solubility [2]: greater water solubility than bilirubin; PPARα activity (PPRE-3tk-luc) (PPARα [4]; Cos7 cells, PPARα overexpression, dose dependence, 24 hours, vs 0 μM): significantly (p<0.05) increased; PPRE-3tk-luc promoter activation in the absence of PPARα (PPARα [4]; Cos7 cells, empty vector, dose dependence, 24 hours): did not activate
– | – | – | CC(C)OC(=O)C(C)(C)Oc1ccc(C(=O)c2ccc(Cl)cc2)cc1 [fenofibrate] | – | – | – | – | – | – | – | 48 | – | 51 | –
